One test deals with T1, calmodulin (CaM) (Homo sapiens, UniProt P0DP23).
T1 construct: purchased EMD Millipore (Billerica, Mass.)
Kind of test: SHG detection of ligand-induced conformational change of labeled calmodulin tethered to Ni-NTA supported lipid bilayer. The test is classed as binding. Particulars: buffer containing 1 mM CaCl2 injected; N=3. The source says:
MBP and CaM Proteins: To explore the ability of our SHG bilayer system to detect and measure conformational changes of a protein, we began by testing the system on CaM and MBP, two proteins previously studied by SHG [32, 33]. First, we tethered labeled CaM to the SLB surface and monitored the change in SHG intensity upon addition of the calmodulin binding peptide (CBP) in the presence or absence of calcium-containing buffers. […] When calcium is omitted from the buffer, addition of the peptide alone results in M=3.1%, (N=3, SEM±1.6) change in SHG intensity, essentially no change (FIG. 7B). […] Next, we evaluated the effect of adding calcium ions. […] Peptide was then added directly to these samples two minutes after calcium addition, producing a positive signal change of M=8.7% (N=3, SEM±0.4). As the magnitude of the SHG signal is proportional to the net, average orientation of the dye label relative to the surface normal, the different magnitudes of SHG signal change upon binding CBP and calcium to unbound CaM confirm that these ligands bind to specific and different conformations of the protein. SHG signal changes can occur in either the positive or negative direction relative to baseline depending on whether the net, average orientation of the probe moves closer to or further away from the surface normal, respectively. […]
(§1) SHG signal was monitored over several minutes after injection.

Test [1] addresses monomeric forms of avidin or streptavidin. Particulars: read-out: biotin-binding affinity of monomeric forms of avidin or streptavidin; cited from earlier work.
The next test has as its system His-tag-Ni-NTA linkage. Nature of the test: Specificity of protein attachment to bilayer: incubation with or without imidazole, SHG signal. Format: binding. The note with it: imidazole 350 mM (FIG. 6A legend) / 300 mM (methods). The procedure:
We began by characterizing the attachment of the proteins to our SLB surface. The SLB surface we employed has integrated immobilized metal affinity (Ni-NTA) chemistry to specifically tether the proteins to the bilayer in an oriented manner via a poly-histidine tag at the N- or C-terminus. To test the specificity of this interaction, each protein was incubated on the bilayer in the presence or absence of imidazole, a competitive inhibitor of His-tagged protein binding. […] When labeled protein is incubated in the presence of imidazole, SHG signal levels are reduced to less than 10% of the original signal or to background levels, i.e. to those of bilayer alone.

In test [2] the target is T2, maltose binding protein (MBP) (Escherichia coli, UniProt P0AEX9). Kind of test: SHG detection of ligand-induced conformational change of lysine-labeled MBP tethered to Ni-NTA supported lipid bilayer. On the set-up: purchased AtGen Co, Ltd (Seongnam-si, Gyeonggi-do, South Korea). Particulars: for change in SHG intensity (M): 2 mM maltose, MBP labeled at pH 7.5, N=3; for change in SHG signal (M): 2 mM, MBP labeled at pH 8.3, N=4. On the procedure: We also performed a similar set of experiments with MBP. First, we monitored the SHG intensity of MBP labeled at pH 8.3 upon addition of buffer, lactose, or maltose. […] Because the addition of both 2 mM lactose and buffer alone result in negligible changes in SHG intensity, the change in SHG intensity upon maltose addition is specific to ligand-induced conformational change upon binding.
The converse trend, preference at K88 over K15, was observed when the experimental conditions changed to pH 8.3. […] Based on inspection of the crystal structures, we hypothesized that when MBP is primarily labeled at K15 rather than K88, this could alter the directionality of SHG signal change upon ligand addition relative to the reverse case, since K15 and K88 appear to rotate towards and away from the surface normal, respectively, assuming the protein is oriented with its N-terminus facing the bilayer. […] Consistent with previous results, the addition of lactose and buffer alone had no effect.
J Am Chem Soc 136(29):10349-10360). […] (under standard kinetic condition described in ref [28].
Excess protein was removed by additional washes after incubation.
as §1

In test [3] the target is T2, maltose binding protein (MBP). Nature of the test: Example 2 SHG kinetic reads of PyMPO-labeled His-tagged MBP tethered on 10% Ni-NTA bilayer. The note with it: 10 uL injection of 2 mM solution into 10 uL well; 10% Ni-NTA tethered MBP. The procedure: Protein labeling protocol: Stock His-tagged maltose binding protein (MBP) (1 mL at nominal 0.5 mg/mL) was buffer exchanged from 20 mM Tris-HCL pH 8.0, 0.1 M NaCl, 10% Glycerol into 0.1 M Na phosphate, pH 7.5 by passing over two of the 2 mL Zeba™ Spin Desalting Columns (Thermo Scientific) equilibrated per the manufacturer's instructions. Concentration and volume of the buffer exchanged material were determined by measuring absorbance on a NanoDrop Spectrophotometer (Thermo Scientific). PyMPO-NHS was weighed out and dissolved to 2 mM in dry DMSO. PyMPO-NHS was added to the buffer exchanged MBP at 3.5:1 mole equivalents. The conjugation reaction was allowed to proceed in the dark at room temp, stirring gently, for 15 minutes. The reaction was terminated by buffer exchange back into the MBP storage buffer (20 mM Tris-HCL pH 8.0, 0.1 M NaCl, 10% Glycerol) over a fresh pair of Zeba™ Spin Desalting Columns. The resultant conjugate was centrifuged at 16K×g for 20 minutes at 4° C., and volume, concentration and degree of labeling was determined for the supernatant by measuring absorbance at 280 nm and 410 nm on the NanoDrop. […]
Scanning: The entire slide was line scanned to gather SHG data for determining the relative tethering efficiency of 3% vs 10% Ni-NTA surfaces. Well positions for 10% Ni-NTA tethered MBP were recorded and used to set up the MBP kinetic reads (3 wells total). […]

For the compound `[Ca+2].[Cl-].[Cl-]` [CaCl2], the “change in SHG signal (M)” value on calmodulin (CaM) was −12.6%. Consider `O=C(O)CCCC[C@@H]1SC[C@@H]2NC(=O)N[C@@H]21` [biotin], for which the Kd in test [1] is roughly 10 nM. Regarding `c1c[nH]cn1` [imidazole], the “SHG signal level of labeled protein incubated in the presence of imidazole” value in the test with His-tag-Ni-NTA linkage is “less than 10 % of the original signal”. For `OC[C@H]1O[C@@H](O[C@H]2[C@H](O)[C@@H](O)C(O)O[C@@H]2CO)[C@H](O)[C@@H](O)[C@H]1O` (some centres unmarked) [lactose], in test [2], the “change in SHG intensity (M)” value is reported as “no effect” and the “change in SHG signal (M)” value turned out to be 0.44%. In the case of `OC[C@H]1O[C@H](O[C@H]2[C@H](O)[C@@H](O)[C@H](O)O[C@@H]2CO)[C@H](O)[C@@H](O)[C@@H]1O` [maltose], the “SHG response (induced conformational change) of MBP” value in test [3] was “only responded to addition of maltose”. In test [2], the “change in SHG intensity (M)” value is 27.4% and the “change in SHG signal (M)” value is −33.8%.

The values above are taken from patent publication US10768174B2, “Attachment of proteins to interfaces for use in nonlinear optical detection” (Bluelight Therapeutics, Inc., priority 2014, dated 2020).
